Tested on: T1, Horseradish peroxidase (HRP), soluble HRP
T1 construct: gene PRXC1A; free (soluble) enzyme
Assay: absorbance at […] nm, Lineweaver-Burk plot
Type: biochemical, Armoracia rusticana
Conditions: soluble (free) enzyme; co-substrate H2O2 (8 mM in standard assay); 20 mM sodium acetate pH 6.0

COc1ccccc1O [guaiacol]
Km: 35.5 mM
